Tests used:
motilin receptor = molecular target: T1, motilin receptor (Oryctolagus cuniculus, UniProt G1T803); experiment: Determination of motilin receptor binding affinity (displacement of [125I-Tyr7, Nle13]motilin(porcine)); parameters: species or system rabbit
T1 construct: from tissue; host or cells: rabbit antral smooth muscle membranes
Experimental: The motilin receptor binding affinity of the peptides of this invention was determined by using the general procedure of Bormans, Peelers and Vantrappen, Regul. […] Fitting was performed using the iterative least-squares procedure of the SAS-software package (SAS Institute, Inc., Cary, N.C., USA).

[1] = in vivo; cited from earlier work

T1 sequence (G1T803 1-400): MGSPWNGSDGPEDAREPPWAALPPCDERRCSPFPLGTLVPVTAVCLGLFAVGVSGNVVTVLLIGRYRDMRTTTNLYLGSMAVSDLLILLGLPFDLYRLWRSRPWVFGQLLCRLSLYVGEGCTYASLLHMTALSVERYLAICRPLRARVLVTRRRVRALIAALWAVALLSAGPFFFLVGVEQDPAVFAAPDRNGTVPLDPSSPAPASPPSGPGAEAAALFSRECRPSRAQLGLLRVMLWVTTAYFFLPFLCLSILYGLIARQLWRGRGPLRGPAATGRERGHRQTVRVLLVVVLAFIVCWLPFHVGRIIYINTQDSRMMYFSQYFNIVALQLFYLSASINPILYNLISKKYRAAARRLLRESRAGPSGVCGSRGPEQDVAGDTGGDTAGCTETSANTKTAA

CC[C@H](C)[C@H](NC(=O)[C@@H]1CCCN1C(=O)[C@@H](NC(=O)[C@@H](N)Cc1ccccc1)C(C)C)C(=O)N[C@@H](Cc1ccccc1)C(=O)N[C@H](C(=O)N[C@@H](Cc1ccc(O)cc1)C(=O)NCC(=O)N[C@@H](CCC(=O)O)C(=O)N[C@@H](CC(C)C)C(=O)N[C@@H](CCC(N)=O)C(=O)N[C@@H](CCCNC(=N)N)C(=O)N[C@@H](CCSC)C(=O)N[C@@H](CCC(N)=O)C(=O)N[C@@H](CCC(=O)O)C(=O)N[C@@H](CCCCN)C(=O)N[C@@H](CCC(=O)O)C(=O)N[C@@H](CCCNC(=N)N)C(=O)N[C@@H](CC(N)=O)C(=O)N[C@@H](CCCCN)C(=O)NCC(=O)N[C@@H](CCC(N)=O)C(=O)O)[C@@H](C)O [motilin]
Kd (motilin receptor): 0.759 nM
half-life (t1/2) [1]: 4.5 min

Source: US5422341A, “Motilin-like polypeptides with gastrointestinal motor stimulating activity” (Ohmeda Pharmaceutical Products Division Inc., priority 1993, dated 1995)
